Source: paper PMC12370193, “An L-fucose-responsive transcription factor cross-regulates the expression of a diverse array of carbohydrate-active enzymes in Trichoderma reesei” (PLOS Genetics, 2025)

Target: T1, FDH1 (Trichoderma reesei, UniProt G0RGU7)
T1 construct: gene TRIREDRAFT_60517; full-length re-annotated 302-aa protein (database gene model may differ; S1 Data); codon-optimized; pET-32a(+), E. coli BL21(DE3); N-terminal His6 tag
Assay: NADH formation at […] nm, initial rates, Hill equation fit
Format: biochemical
Conditions: NAD+ co-substrate (0.5 mM in standard assay), 50 mM Tris-HCl pH 9.0, 30 °C

T1 sequence (G0RGU7 entry or part of it): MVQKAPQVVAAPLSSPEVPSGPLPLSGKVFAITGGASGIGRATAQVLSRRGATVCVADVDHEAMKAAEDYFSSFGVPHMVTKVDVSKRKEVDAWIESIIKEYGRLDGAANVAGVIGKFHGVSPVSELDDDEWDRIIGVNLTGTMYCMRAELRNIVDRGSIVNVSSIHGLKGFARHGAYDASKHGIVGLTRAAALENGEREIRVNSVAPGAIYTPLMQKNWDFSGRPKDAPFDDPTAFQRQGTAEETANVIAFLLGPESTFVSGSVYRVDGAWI

C[C@@H]1OC(O)[C@@H](O)[C@H](O)[C@@H]1O (stereo partly drawn) [L-fucose, 6-deoxy-L-galactose]
Km: 546 µM
